According to PMC8330742, “New benzothieno[2,3-c]pyridines as non-steroidal CYP17 inhibitors: design, synthesis, anticancer screening, apoptosis induction, and in silico ADME profile studies” (Journal of Enzyme Inhibition and Medicinal Chemistry, 2021):
Where two headings read alike, the source gives them in different places.

Legend:
RPMI-8226 = experiment: NCI-60 SRB screen; format: cell-based; conditions: Homo sapiens, single dose 10^−5 M, read-out: Growth inhibition (%)
SF-539 = experiment: NCI-60 SRB screen; format: cell-based, human; conditions: Homo sapiens, single dose 10^−5 M, read-out: Growth inhibition (%)
SNB-19 = experiment: NCI-60 SRB screen; format: cell-based; conditions: Homo sapiens, single dose 10^−5 M, read-out: Growth inhibition (%)
SNB-75 = experiment: NCI-60 SRB screen; format: cell-based, human; conditions: Homo sapiens, single dose 10^−5 M, read-out: Growth inhibition (%)
U251 = experiment: NCI-60 SRB screen; format: cell-based, human; conditions: Homo sapiens, U-251, single dose 10^−5 M, read-out: Growth inhibition (%)
UACC-257 = experiment: NCI-60 SRB screen; format: cell-based, human; conditions: Homo sapiens, single dose 10^−5 M, read-out: Growth inhibition (%)
OVCAR-5 = experiment: NCI-60 SRB screen; format: cell-based, human; conditions: Homo sapiens, single dose 10^−5 M, read-out: Growth inhibition (%)
786-0 = experiment: NCI-60 SRB screen; format: cell-based; conditions: Homo sapiens, single dose 10^−5 M, read-out: Growth inhibition (%)
A498 = experiment: NCI-60 SRB screen; format: cell-based, human; conditions: Homo sapiens, single dose 10^−5 M, read-out: Growth inhibition (%)
PC-3 = experiment: NCI-60 SRB screen; format: cell-based, human; conditions: Homo sapiens; single dose 10^−5 M; PC-3, Prostate cancer; read-out: Growth inhibition (%)
DU-145 = experiment: NCI-60 SRB screen; format: cell-based, human; conditions: Homo sapiens; single dose 10^−5 M; DU-145, Prostate cancer; read-out: Growth inhibition (%)
MCF7 = experiment: NCI-60 SRB screen; format: cell-based, human; conditions: Homo sapiens, single dose 10^−5 M, MCF-7, Breast cancer, read-out: Growth inhibition (%)
MDA-MB-231/ATCC = experiment: NCI-60 SRB screen; format: cell-based, human; conditions: Homo sapiens; single dose 10^−5 M; MDA-MB 231/ATCC, Breast cancer; read-out: Growth inhibition (%)
BT-549 = experiment: NCI-60 SRB screen; format: cell-based, human; conditions: Homo sapiens; single dose 10^−5 M; BT-549, Breast cancer; read-out: Growth inhibition (%)
T-47D = experiment: NCI-60 SRB screen; format: cell-based, human; conditions: Homo sapiens, T47D, single dose 10^−5 M, Breast cancer, read-out: Growth inhibition (%)
MDA-MB-468 = experiment: NCI-60 SRB screen; format: cell-based, human; conditions: Homo sapiens; single dose 10^−5 M; MDA-MB-468, Breast cancer; read-out: Growth inhibition (%)
[1] = UACC-257, UACC-275 (so in the source)

| SMILES | inhibition at 10 µM (RPMI-8226; RPMI-8226) [%] | inhibition at 10 µM (SF-539; SF-539) [%] | inhibition at 10 µM (SNB-19; SNB-19) [%] | inhibition at 10 µM (SNB-75; SNB-75) [%] | inhibition at 10 µM (U251; U251) [%] | inhibition at 10 µM (UACC-257; [1]) [%] | inhibition at 10 µM (786-0; 786-0) [%] | inhibition at 10 µM (A498; A498) [%] | melting point [°C] | inhibition at 10 µM (RPMI-8226; RPMI-8226, Leukaemia) [%] | inhibition at 10 µM (SF-539; SF-539, CNS cancer) [%] | inhibition at 10 µM (SNB-19; SNB-19, CNS cancer) [%] | inhibition at 10 µM (SNB-75; SNB-75, CNS cancer) [%] | inhibition at 10 µM (U251; U251, CNS cancer) [%] | inhibition at 10 µM (UACC-257; UACC-257, Melanoma) [%] | inhibition at 10 µM (OVCAR-5; OVCAR-5, Ovarian cancer) [%] | inhibition at 10 µM (786-0; 786-0, Renal cancer) [%] | inhibition at 10 µM (PC-3) [%] | inhibition at 10 µM (DU-145) [%] | inhibition at 10 µM (MCF7) [%] | other results |
| --- | --- | --- | --- | --- | --- | --- | --- | --- | --- | --- | --- | --- | --- | --- | --- | --- | --- | --- | --- | --- | --- |
| COc1ccc(C=C2Sc3c(F)cccc3C2=O)c(OC)c1 [Compound 2a, 2-(2,4-Dimethoxybenzylidene)-7-fluoro[1]benzothiophen-3(2H)-one] | -8.46 | -0.64 | -2.1 | 12.6 | -7.91 | -15.2 | -12.2 | -4.03 | 195 to 197 |  |  |  |  |  |  |  |  |  |  |  | inhibition at 10 µM (OVCAR-5; OVCAR-5): -9.42% |
| O=C1C(=Cc2ccccc2[N+](=O)[O-])Sc2c(F)cccc21 [Compound 2c, 7-Fluoro-2-(2-nitrobenzylidene)[1]benzothiophen-3(2H)-one] | 30.6 | 3.65 | 14.2 | -1.55 | 32.5 | 78.8 | -11 | 55.1 | 170 to 172 |  |  |  |  |  |  |  |  |  |  |  |  |
| COc1ccc(C2NC(=O)C(Cl)c3c2sc2c(F)cccc32)c(OC)c1 (stereo not shown) [Compound 4a, 4-Chloro-1-(2,4-Dimethoxyphenyl)-8-fluoro-1,2-dihydro[1]benzothieno [2,3-c]pyridine-3(4H)-one] | 11.7 | 3.36 | 0.33 | 22.3 | 0.4 | -12.8 | 4.93 | 14.9 | 120 to 122 |  |  |  |  |  |  |  |  |  |  |  | inhibition at 10 µM (OVCAR-5; OVCAR-5): -3.64% |
| COc1ccc(C2NC(=O)C(Cl)c3c2sc2c(F)cccc32)cc1 (stereo not shown) [Compound 4b, 4-Chloro-8-fluoro-1-(4-methoxyphenyl)-1,2-dihydro[1]benzothieno[2,3-c] pyridine-3(4H)-one] | 7.32 | 15.8 | 7.47 | 22.8 | 21.1 | -6.58 | -0.46 | 11.1 | 154 to 156 |  |  |  |  |  |  |  |  |  |  |  | inhibition at 10 µM (OVCAR-5; OVCAR-5): -12.9% |
| O=C1NC(c2ccccc2[N+](=O)[O-])c2sc3c(F)cccc3c2C1Cl (stereo not shown) [Compound 4c, 4-Chloro-8-fluoro-1-(2-nitrophenyl)-1,2-dihydro[1]benzothieno[2,3-c] pyridine-3(4H)-one] | 5.9 | 3.36 | -2.16 | 11.7 | 8.82 | -0.18 | -16.9 | -6.23 | 110 to 112 |  |  |  |  |  |  |  |  |  |  |  | inhibition at 10 µM (OVCAR-5; OVCAR-5): -2.88% |
| N#CC1=C(Cl)NC(c2cccc([N+](=O)[O-])c2)c2sc3c(F)cccc3c21 (stereo not shown) [Compound 7b, 3-Chloro-4-cyano-8-fluoro-1-(3-nitrophenyl)-1,2-dihydro[1]benzothieno [2,3-c]pyridine] |  |  |  |  |  |  |  |  | 140 to 142 | 12.7 | 3.78 | -0.67 | 8.28 | -7.36 | -9.77 | -3.54 | -13.5 | 3.5 | -14.2 | 8.22 | inhibition at 10 µM (A498; A498, Renal cancer): 19.7%; inhibition at 10 µM (MDA-MB-231/ATCC): 7.25%; inhibition at 10 µM (BT-549): -2.93%; inhibition at 10 µM (T-47D): -9.14%; inhibition at 10 µM (MDA-MB-468): -7.25% |
| O=[N+]([O-])c1cccc(C2NC(N3CCOCC3)=C(Cl)c3c2sc2c(F)cccc32)c1 (stereo not shown) [Compound 8b, 4-Chloro-3-(4-morpholino)-8-fluoro-1-(3-nitrophenyl)-1,2-dihydro [1]benzothieno[2,3-c]pyridine] |  |  |  |  |  |  |  |  | 175 to 177 | 16.2 | 6.36 | 1.4 | 10.4 | 6.85 | -3.74 | 8.49 | -6.62 | 14.5 | -1.71 | 21 | inhibition at 10 µM (A498; A498, Renal cancer): 10.4%; inhibition at 10 µM (MDA-MB-231/ATCC): 18.8%; inhibition at 10 µM (BT-549): 4.09%; inhibition at 10 µM (T-47D): 20.8%; inhibition at 10 µM (MDA-MB-468): 1.73% |
| O=[N+]([O-])c1cccc(C2NC(N3CCCCC3)=C(Cl)c3c2sc2c(F)cccc32)c1 (stereo not shown) [Compound 8c, 4-Chloro-3-(piperidin-1-yl)-8-fluoro-1-(3-nitrophenyl)-1,2-dihydro [1]benzothieno[2,3-c]pyridine] |  |  |  |  |  |  |  |  | 241 to 243 | 8.74 | -6.63 | -3.36 | 22.4 | -7.81 | -10.3 | -1.61 | -0.24 | 11.9 | -12.5 | 23.3 | inhibition at 10 µM (MDA-MB-231/ATCC): 13.9%; inhibition at 10 µM (BT-549): -10.5%; inhibition at 10 µM (T-47D): 17.5%; inhibition at 10 µM (MDA-MB-468): -13.9% |
| N#CC1=C(N2CCCCC2)NC(c2cccc([N+](=O)[O-])c2)c2sc3c(F)cccc3c21 (stereo not shown) [Compound 8f, 4-Cyano-3-(piperidin-1-yl)-8-fluoro-1-(3-nitrophenyl)-1,2-dihydro [1]benzothieno[2,3-c]pyridine] |  |  |  |  |  |  |  |  | 280 to 282 | 14.9 | 6.49 | 1.38 | 5.45 | -6.11 | -12.7 | 5.19 | -12.1 | 8.87 | -8.32 | -0.95 | inhibition at 10 µM (A498; A498, Renal cancer): -0.87%; inhibition at 10 µM (MDA-MB-231/ATCC): 15.1%; inhibition at 10 µM (BT-549): 1.03%; inhibition at 10 µM (T-47D): 2.45%; inhibition at 10 µM (MDA-MB-468): -8.03% |
| O=[N+]([O-])c1cccc(C2NC3=C(Nc4ccccc4N3)c3c2sc2c(F)cccc32)c1 (stereo not shown) [Compound 9, 9-Fluoro-7-(3-nitrophenyl)-5,6,7,13-tetrahydro[1]benzothieno[3′,2′:4,5]-pyrido[2,3-b]quinoxaline] |  |  |  |  |  |  |  |  | 160 to 162 | 12.1 | 3.93 | -0.03 | 10.2 | -3.59 | -15.2 | 3.15 | -10.3 | 7.47 | -11.4 | 1.91 | inhibition at 10 µM (A498; A498, Renal cancer): -0.12%; inhibition at 10 µM (MDA-MB-231/ATCC): 17.8%; inhibition at 10 µM (BT-549): 5.02%; inhibition at 10 µM (T-47D): -5.91%; inhibition at 10 µM (MDA-MB-468): -10.6% |
